Results from patent publication US10376553B2, “Pharmaceutical composition for preventing and treating chronic obstructive lung disease containing, as active ingredient, Magnoliae flos extract, fraction, or active fraction thereof” (KOREA RESEARCH INSTITUTE OF BIOSCIENCE AND BIOTECHNOLOGY, priority 2015, dated 2019).

Legend:
H292 cells = assay: Cytotoxicity (CCK-8 cell viability) of the compounds of Magnoliae flos in H292 cells; type: cell-based, human; conditions: 24 h, vs 0.2% DMSO control = 100%
Procedure: Then, 10 μl of the CCK-8 solution (Dojindo Laboratories, Japan) was mixed with 90 μl of the medium, and 100 μl thereof was added per well. After incubation for a minimum of 30 minutes to a maximum of 4 hours, the absorbance was measured at 570 nm. The cell viability was calculated according to the following Equation 2 with a negative control group treated with 0.2% DMSO as a reference of 100%.
Cell viability=(Compound treated OD 570 nm value)×100/(Negative control group OD 570 nm value) [Equation 2]

MUC5AC protein = assay: Inhibition of MUC5AC protein production (immunoassay) by the compounds; type: cell-based, human; conditions: for MUC5AC secretion (Relative amount to TNF-α treated group, %) / Inhibition rate (%): TNF-α 20 ng/mL; for Inhibition rate (%): MUC5AC secretion; for production of MUC5AC (in words): vs TNF-α treated group = 100%
Procedure: For immunoassay of the resulting MUC5AC, the supernatant (50 uL) recovered was dispensed on to a 96-well plate and dried in a thermostat set at 50° C. It was washed with PBS supplemented with 1% BSA and reacted with an MUC5AC antibody (abcam, USA) at room temperature for 1 hour. A secondary antibody was dispensed thereto for reaction for 1 hour. It was washed again and then reacted with a 3,3′,5,5′-tetramethylbenzidine peroxide solution for 20 minutes. After the reaction was stopped with a sulfuric acid solution, the degree of color development was measured at 450 nm.
As a result, as shown in the following Table 6, the amount of MUCSAC secretion increased in the group treated with TNF-α.

MUC5AC promoters = assay: MUC5AC promoter luciferase reporter assay in H292 cells; type: cell-based, human; conditions: Table 7, MUC5AC promoter luciferase reporter, 10 μM, TNF-α 20 ng/mL
Text: The degree of activation of luciferase was confirmed using a One-glow Luciferase Assay System (Promega).
As a result, as shown in the following Table 7, the activity of the MUC5AC promoters increased in the group treated with TNF-α.

[1] = tested on: inflammatory cells in the bronchoalveolar lavage fluid; assay: Inflammatory cells in bronchoalveolar lavage fluid of the COPD mouse model (cigarette smoke + LPS); type: in vivo, C57BL/6N mice; conditions: BALF, vs COPD-induced group
Procedure: Six-week-old male SPF (specific pathogen-free) C57BL/6N mice (22 to 24 g) were supplied by Koatech (Korea). These animals were fed with a sufficient amount of solid feed (no antibiotics, Samyang Feed Co.) and water until the day of the experiment. They were allowed to adapt for 1 week in a light-dark cycle environment at a temperature of 22±2° C. and a humidity of 55±15%, and then subjected to the experiment.
The animal model was exposed to cigarette smoke to induce chronic obstructive pulmonary disease. 3R4F Kentuchy Reference Cigarettes as standard cigarettes for use to generate cigarette smoke were supplied by University of California (USA). The standard cigarettes contain 9.4 mg of tar, 11 mg of total particle matter (TPM), and 12 mg of carbon monoxide per 1 cigarette. The standard cigarettes were used after harmonization for 48 hours to 72 hours at a temperature of 22±1° C. and a humidity of 60±2%. Further, Cigarette Smoke Generator manufactured by Korea BioLink (Korea) was used for exposure to cigarette smoke. Cigarette smoke was inhaled for 1 hour (8 pcs/hour) for 7 days from 1 hour after oral administration of a sample. 10 μg of LPS (lipopolysaccharide) in PBS 50 μL was injected intranasally to each mouse on the 4th day of the experiment after the mouse was anesthetized with zoletyl 1 hour before the exposure to cigarette smoke. The smoking condition was 8 puffs per 1 standard cigarette (volume: 45 mL, duration: 2 seconds, and interval: 1 time/min).
The active fraction of Magnoliae flos (15, 30 mg/kg) and roflumilast (10 mg/kg) as therapeutic substances were dissolved in 0.5% sodium carboxymethyl cellulose and were orally administered 1 hour before the exposure to cigarette smoke.
The experimental groups were divided into (i) normal control (NC) group; (ii) cigarette smoke+LPS exposure group (COPD); (iii) experimental group administered with roflumilast (ROF) (10 mg/kg, p.o) 1 hour before the exposure to cigarette smoke+LPS; and (iv) experimental group administered with the active fraction of Magnoliae flos (15, 30 mg/kg, p.o; Magnoliae flos 15 and Magnoliae flos 30) 1 hour before the exposure to cigarette smoke+LPS. […] Then, they were administered in the same manner as above.
The bronchial alveolar lavage fluid was separated from the animal model treated with the active fraction and the compounds of Magnoliae flos in <Test Example 6-2> above in the following manner, and the number of inflammatory cells was measured.
Specifically, a mouse sonde was inserted into the bronchial tube, a 1 mL syringe containing 0.7 mL of DPBS (Dulbecco's Phosphate-Buffered Saline) was connected thereto, and DPBS was injected into the lung. The injected DPBS was recovered, and this procedure was repeated twice. The bronchoalveolar lavage fluid separated by DPBS was centrifuged at 1,500 rpm for 15 minutes to make a cell pellet. The supernatant was stored frozen at −70° C. for cytokine analysis. Each cell obtained was suspended in DPBS, attached to a slide glass using a cytospin centrifuge, and Diff-Quik stained. The number of inflammatory cells in each sample was counted through microscopic examination, and the inhibition rate was calculated according to the following Equation 3.
Inhibition rate=(Value of COPD-induced group−value of target substance administered group)×100/(Value of COPD-induced group) [Equation 3]

reactive oxygen species = assay: Production of active oxygen species in BALF of the COPD model (DCF-DA); type: in vivo, C57BL/6N mice; conditions: for rate of inhibiting reactive oxygen compared with ROF drug control group (in words): 30 mg/kg
Procedure: Production of active oxygen species in the bronchoalveolar lavage fluid obtained in <Test Example 6-3> above was confirmed by the following method.
Specifically, the separated BALF (200 μL) was treated to the final concentration of 20 μM of DCF-DA (dihydrodichlorofluorescein diacetate, Sigma-Aldrich, USA), followed by culturing for 30 minutes and measurement using Fluorescence (Molecular Device, USA). The inhibition rate was calculated by Equation 3 above.

IL-6 = IL-6 level in BALF of the COPD model (ELISA); type: in vivo, C57BL/6N mice; conditions: vs COPD-induced group; for IL-6 inhibition rate (%): BALF
Procedure: (§1) Cytokines were measured in the cell supernatant obtained in <Test Example 6-3> above by the following method. Specifically, the levels of IL-6 (R & D System, USA) and TNF-α (BD Bioscience, USA) in the separated BALF were measured by enzyme-linked immuno-sorbent assay (ELISA). Each cytokine analysis was carried out according to the manufacturer's test method.

TNF-α = TNF-α level in BALF of the COPD model (ELISA); type: in vivo, C57BL/6N mice; conditions: vs COPD-induced group; for TNF-α inhibition rate (%): BALF
Procedure: as §1

[2] = 15 mg/kg p.o., vs COPD-induced group
[3] = 30 mg/kg p.o., vs COPD-induced group

Compound	Viability of H292 cells (%, average ± deviation) (H292 cells; 2.5 μM) [%]	Viability of H292 cells (%, average ± deviation) (H292 cells; 5 μM) [%]	Viability of H292 cells (%, average ± deviation) (H292 cells; 10 μM) [%]	Inhibition rate (%) (MUC5AC protein; 2.5 μM)	Inhibition rate (%) (MUC5AC protein; 5 μM)	Inhibition rate (%) (MUC5AC protein; 10 μM)	production of MUC5AC (in words) (MUC5AC protein)	Inhibition rate (%) (MUC5AC promoters)	Inhibition rate of inflammatory cell infiltration (%) Macrophage ([1]; 15 mg/kg p.o.) [%]	Inhibition rate of inflammatory cell infiltration (%) Neutrophil ([1]; 15 mg/kg p.o.) [%]	Inhibition rate of inflammatory cell infiltration (%) Total inflammatory cells ([1]; 15 mg/kg p.o.) [%]	Inhibition rate of inflammatory cell infiltration (%) Macrophage ([1]; 30 mg/kg p.o.) [%]	Inhibition rate of inflammatory cell infiltration (%) Neutrophil ([1]; 30 mg/kg p.o.) [%]	Inhibition rate of inflammatory cell infiltration (%) Total inflammatory cells ([1]; 30 mg/kg p.o.) [%]	Active oxygen inhibition rate (%) (reactive oxygen species; [2])	Active oxygen inhibition rate (%) (reactive oxygen species; [3])	IL-6 inhibition rate (%) (IL-6; 15 mg/kg p.o.)	IL-6 inhibition rate (%) (IL-6; 30 mg/kg p.o.)	TNF-α inhibition rate (%) (TNF-α; 15 mg/kg p.o.)	TNF-α inhibition rate (%) (TNF-α; 30 mg/kg p.o.)	further results
COc1ccc([C@H]2OC[C@H]3[C@@H]2CO[C@H]3c2cc(OC)c(OC)c(OC)c2)cc1OC [Compound S4, epimagnolin]	99.81 ± 2.15	100.74 ± 2.84	99.45 ± 1.53	9.45	25.76	36.29	inhibited in a manner depending on the concentrations	63.2	0.0 ± 0.0	13.8 ± 4.9	14.0 ± 5.1	21.4 ± 6.5	25.7 ± 5.5	29.1 ± 4.4	13.5 ± 4.3	15.9 ± 4.2	0.0 ± 0.0	40.3 ± 3.7	13.8 ± 5.5	24.7 ± 6.5	Viability of H292 cells (%, average ± deviation) (H292 cells; 20 μM): 97.20 ± 1.99%; MUC5AC secretion (Relative amount to TNF-α treated group, %) (MUC5AC protein; 2.5 μM): 90.55 ± 2.59%; MUC5AC secretion (Relative amount to TNF-α treated group, %) (MUC5AC protein; 5 μM): 74.24 ± 2.83%; MUC5AC secretion (Relative amount to TNF-α treated group, %) (MUC5AC protein; 10 μM): 63.71 ± 1.27%; production of MUC5AC (in words) (MUC5AC protein; listed as Formula 5): inhibited the production of MUC5AC in a manner depending on concentration; MUC5AC secretion (Relative amount to TNF-α treated group, %) (MUC5AC promoters): 36.8 ± 6.97%; rate of inhibiting reactive oxygen compared with ROF drug control group (in words) (reactive oxygen species): higher rates of inhibiting reactive oxygen than that of the drug control group treated with ROF; IL-6 in the bronchoalveolar lavage fluid (in words) (IL-6): concentration-dependent decrease; TNF-α secretion in the bronchoalveolar lavage fluid (in words) (TNF-α): concentration-dependent inhibition
COc1cc([C@H]2OC[C@H]3[C@@H]2CO[C@@H]3c2cc(OC)c(OC)c(OC)c2)cc(OC)c1OC [Compound S3, dimethylliroresinol]	100.55 ± 1.26	–	–	2.5	29.38	30.34	inhibited in a manner depending on the concentrations	56.27	19.4 ± 5.4	17.9 ± 6.6	23.3 ± 5.5	33.2 ± 6.2	42.1 ± 3.9	43.5 ± 3.4	15.1 ± 4.7	32.5 ± 3.1	45.9 ± 6.2	43.9 ± 6.5	26.7 ± 7.0	41.7 ± 4.4	production of MUC5AC (in words) (MUC5AC protein; listed as Formula 4): inhibited the production of MUC5AC in a manner depending on concentration; increase in inflammatory cells (in words) [1]: effectively inhibited; production of active oxygen species (in words) (reactive oxygen species; 15 and 30 mg/kg, vs COPD-induced group): relatively higher inhibition rates in a manner depending on concentration; TNF-α secretion in the bronchoalveolar lavage fluid (in words) (TNF-α): concentration-dependent inhibition
COc1ccc([C@H]2OC[C@H]3[C@@H]2CO[C@@H]3c2cc(OC)c(OC)c(OC)c2)cc1OC [Compound S2, magnolin]	121.81 ± 2.42	119.94 ± 2.81	118.37 ± 2.55	2.43	18.83	34.33	inhibited in a manner depending on the concentrations	55.2	21.6 ± 6.3	47.2 ± 3.6	44.7 ± 3.9	10.7 ± 9.8	31.0 ± 7.1	30.7 ± 5.3	21.8 ± 4.4	14.0 ± 8.3	64.9 ± 4.8	36.6 ± 8.9	29.2 ± 4.8	31.0 ± 7.2	Viability of H292 cells (%, average ± deviation) (H292 cells; 20 μM): 112.99 ± 4.16%; MUC5AC secretion (Relative amount to TNF-α treated group, %) (MUC5AC protein; 2.5 μM): 97.57 ± 0.78%; MUC5AC secretion (Relative amount to TNF-α treated group, %) (MUC5AC protein; 5 μM): 81.17 ± 0.82%; MUC5AC secretion (Relative amount to TNF-α treated group, %) (MUC5AC protein; 10 μM): 65.67 ± 0.99%; production of MUC5AC (in words) (MUC5AC protein; listed as Formula 3): inhibited the production of MUC5AC in a manner depending on concentration; MUC5AC secretion (Relative amount to TNF-α treated group, %) (MUC5AC promoters): 44.8 ± 7.33%; rate of inhibiting reactive oxygen compared with ROF drug control group (in words) (reactive oxygen species): higher rates of inhibiting reactive oxygen than that of the drug control group treated with ROF
